Assay results taken from patent US8247211B2, “Glycopeptide antibiotics” (American Cyanamid Company, priority 2001, dated 2012).
In brackets after ≈: the same amount, converted by molar mass.

Experiments:
Experiment in all cases: In vitro antibacterial evaluation: minimum inhibitory concentration (MIC), broth dilution method
Format in all cases: cell-based
Escherichia coli = test system: Escherichia coli
Procedure, shortened: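 Broth dilution per NCCLS M7-A2 in Muller-Hinton II […], inoculum 5×10^5 CFU/mL, antibiotic tested over 64-0.06 μg/mL. MIC is taken as the lowest concentration that inhibits growth. Panel includes recent clinical isolates resistant to methicillin, penicillin and/or vancomycin.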

Enterococcus sp. = test system: Enterococcus sp.
Procedure, shortened: (§1)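 NCCLS M7-A2 broth dilution; Muller-Hinton II […]; 5×10^5 CFU/mL; 64-0.06 μg/mL. MIC = lowest concentration with no growth.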

Staphylococcus sp. = details: broth dilution, 18 hours at 35° C.
Procedure, shortened: as §1

Streptococcus sp. = test system: Streptococcus sp.
Procedure, shortened: as §1

[1] = broth dilution, inoculum 5×10^5 CFU/mL, 18 hours at 35° C.

MIC Escherichia coli (ATCC 25922) (Escherichia coli; strain ATCC 25922): >64 µg/mL
MIC Escherichia coli (GC 4559) (Escherichia coli; strain GC 4559): >64 µg/mL
MIC Escherichi coli (GC 4560) (Escherichia coli; strain GC 4560): 2 µg/mL (≈ 1.37 µM)
MIC Enterococcus avium (GC 4558) (Enterococcus sp.; [1]): 16 µg/mL (≈ 10.9 µM)
MIC Enterococcus faecalis (ATCC 29212) (Enterococcus sp.; [1]): 16 µg/mL (≈ 10.9 µM)
MIC Enterococcus faecalis (GC 4552) (Enterococcus sp.; [1]): 16 µg/mL (≈ 10.9 µM)
MIC Enterococcus faecalis (GC 4553) (Enterococcus sp.; [1]): 16 µg/mL (≈ 10.9 µM)
MIC Enterococcus faecalis (GC 4554) (Enterococcus sp.; [1]): 16 µg/mL (≈ 10.9 µM)
MIC Enterococcus faecalis (GC 6189) (Enterococcus sp.; [1]): 16 µg/mL (≈ 10.9 µM)
MIC Enterococcus faecium (GC 2243) (Enterococcus sp.; [1]): 16 µg/mL (≈ 10.9 µM)
MIC Enterococcus faecium (GC 4556) (Enterococcus sp.; [1]): 16 µg/mL (≈ 10.9 µM)
MIC Enterococcus faecium (GC 4557) (Enterococcus sp.; [1]): 8 µg/mL (≈ 5.46 µM)
MIC Enterococcus faecalis (ATCC 29212) (Enterococcus sp.; strain ATCC 29212): 16 µg/mL (≈ 10.9 µM)
MIC Enterococcus faecalis (GC 2242) (Enterococcus sp.; strain GC 2242): 16 µg/mL (≈ 10.9 µM)
MIC Enterococcus faecium (GC 2243) (Enterococcus sp.; strain GC 2243): 16 µg/mL (≈ 10.9 µM)
MIC Enterococcus faecalis (GC 2691) (Enterococcus sp.; strain GC 2691): 16 µg/mL (≈ 10.9 µM)
MIC Enterococcus faecalis (GC 3059) (Enterococcus sp.; strain GC 3059): 16 µg/mL (≈ 10.9 µM)
MIC Enterococcus faecalis (GC 4552) (Enterococcus sp.; strain GC 4552): 16 µg/mL (≈ 10.9 µM)
MIC Enterococcus faecalis (GC 4553) (Enterococcus sp.; strain GC 4553): 16 µg/mL (≈ 10.9 µM)
MIC Enterococcus faecalis (GC 4554) (Enterococcus sp.; strain GC 4554): 16 µg/mL (≈ 10.9 µM)
MIC Enterococcus faecium (GC 4556) (Enterococcus sp.; strain GC 4556): 16 µg/mL (≈ 10.9 µM)
MIC Enterococcus faecium (GC 4557) (Enterococcus sp.; strain GC 4557): 8 µg/mL (≈ 5.46 µM)
MIC Enterococcus avium (GC 4558) (Enterococcus sp.; strain GC 4558): 16 µg/mL (≈ 10.9 µM)
MIC Enterococcus faecalis (GC 6189) (Enterococcus sp.; strain GC 6189): 16 µg/mL (≈ 10.9 µM)
MIC Coagulase Negative Staphylococcus (GC 4547) (Staphylococcus sp.; 5×10^5 CFU/mL): 4 µg/mL (≈ 2.73 µM)
MIC Coagulase Negative Staphylococcus (GC 4548) (Staphylococcus sp.; 5×10^5 CFU/mL): 2 µg/mL (≈ 1.37 µM)
MIC Coagulase Negative Staphylococcus (GC 4549) (Staphylococcus sp.; 5×10^5 CFU/mL): 2 µg/mL (≈ 1.37 µM)
MIC Coagulase Negative Staphylococcus (GC 4551) (Staphylococcus sp.; 5×10^5 CFU/mL): 8 µg/mL (≈ 5.46 µM)
MIC Coagulase Negative Staphylococcus (GC 6257) (Staphylococcus sp.; 5×10^5 CFU/mL): 2 µg/mL (≈ 1.37 µM)
MIC Staphylococcus aureus (ATCC 29213) (Staphylococcus sp.; 5×10^5 CFU/mL): 4 µg/mL (≈ 2.73 µM)
MIC Staphylococcus aureus (GC 1131) (Staphylococcus sp.; 5×10^5 CFU/mL): 8 µg/mL (≈ 5.46 µM)
MIC Staphylococcus aureus (GC 3051) (Staphylococcus sp.; 5×10^5 CFU/mL): 8 µg/mL (≈ 5.46 µM)
MIC Staphylococcus aureus (GC 3053) (Staphylococcus sp.; 5×10^5 CFU/mL): 8 µg/mL (≈ 5.46 µM)
MIC Staphylococcus aureus (GC 4541) (Staphylococcus sp.; 5×10^5 CFU/mL): 4 µg/mL (≈ 2.73 µM)
MIC Staphylococcus aureus (GC 4542) (Staphylococcus sp.; 5×10^5 CFU/mL): 4 µg/mL (≈ 2.73 µM)
MIC Staphylococcus aureus (GC 4544) (Staphylococcus sp.; 5×10^5 CFU/mL): 8 µg/mL (≈ 5.46 µM)
MIC Staphylococcus aureus (GC 4545) (Staphylococcus sp.; 5×10^5 CFU/mL): 4 µg/mL (≈ 2.73 µM)
MIC Staphylococcus aureus-SMITH (GC 4543) (Staphylococcus sp.; 5×10^5 CFU/mL): 4 µg/mL (≈ 2.73 µM)
MIC Staphylococcus aureus (ATCC 29213) (Staphylococcus sp.; strain ATCC 29213): 4 µg/mL (≈ 2.73 µM)
MIC Staphylococcus aureus (GC 1131) (Staphylococcus sp.; strain GC 1131): 8 µg/mL (≈ 5.46 µM)
MIC Staphylococcus aureus (GC 3051) (Staphylococcus sp.; strain GC 3051): 8 µg/mL (≈ 5.46 µM)
MIC Staphylococcus aureus (GC 3053) (Staphylococcus sp.; strain GC 3053): 8 µg/mL (≈ 5.46 µM)
MIC Staphylococcus aureus (GC 4541) (Staphylococcus sp.; strain GC 4541): 4 µg/mL (≈ 2.73 µM)
MIC Staphylococcus aureus (GC 4542) (Staphylococcus sp.; strain GC 4542): 4 µg/mL (≈ 2.73 µM)
MIC Staphylococcus aureus-SMITH (GC 4543) (Staphylococcus sp.; strain GC 4543): 4 µg/mL (≈ 2.73 µM)
MIC Staphylococcus aureus (GC 4544) (Staphylococcus sp.; strain GC 4544): 8 µg/mL (≈ 5.46 µM)
MIC Staphylococcus aureus (GC 4545) (Staphylococcus sp.; strain GC 4545): 4 µg/mL (≈ 2.73 µM)
MIC Coagulase Negative Staphylococcus (GC 4547) (Staphylococcus sp.; strain GC 4547): 4 µg/mL (≈ 2.73 µM)
MIC Coagulase Negative Staphylococcus (GC 4548) (Staphylococcus sp.; strain GC 4548): 2 µg/mL (≈ 1.37 µM)
MIC Coagulase Negative Staphylococcus (GC 4549) (Staphylococcus sp.; strain GC 4549): 2 µg/mL (≈ 1.37 µM)
MIC Coagulase Negative Staphylococcus (GC 4551) (Staphylococcus sp.; strain GC 4551): 8 µg/mL (≈ 5.46 µM)
MIC Coagulase Negative Staphylococcus (GC 6257) (Staphylococcus sp.; strain GC 6257): 2 µg/mL (≈ 1.37 µM)
MIC Streptococcus pneumoniae (ATCC 6301) (Streptococcus sp.; strain ATCC 6301): 0.5 µg/mL (≈ 0.341 µM)
MIC Streptococcus pneumoniae (GC 1894) (Streptococcus sp.; strain GC 1894): 0.12 µg/mL (≈ 0.0819 µM)
MIC Streptococcus pyogenes (GC 4563) (Streptococcus sp.; strain GC 4563): 1 µg/mL (≈ 0.683 µM)
MIC Streptococcus agalactiae (GC 4564) (Streptococcus sp.; strain GC 4564): 1 µg/mL (≈ 0.683 µM)
MIC Streptococcus pneumoniae (GC 4565) (Streptococcus sp.; strain GC 4565): 0.5 µg/mL (≈ 0.341 µM)
SMILES: CC(=O)n1cc(C2OCC3OC(OC4C(CO)OC(Oc5ccc(CC6NC(=O)C(C(C)c7ccccc7)NC(=O)CNC(=O)C(CO)NC(=O)C(C(O)C7CNC(=N)N7C7OC(CO)C(O)C(O)C7O)NC(=O)C(C(O)C7CNC(=N)N7)NC6=O)cc5)C(O)C4O)C(O)C(O)C3O2)c2ccccc21 (stereo not drawn) [Example 161, Cyclo[glycyl-β-methylphenylalanyl-O-[4-O-[4,6-O-[1-(acetylindol-3-yl)methylene]hexopyranosyl]hexopyranosyl]tyrosyl-3-(2-iminoimidazolidin-4-yl)seryl-3-(3-hexopyranosyl-2-iminoimidazolidin-4-yl)serylseryl]]
MIC Staphylococcus haemolyticus (GC 4546) (Staphylococcus sp.; 5×10^5 CFU/mL): 4 µg/mL (≈ 2.73 µM)
MIC Staphylococcus haemolyticus (GC 4546) (Staphylococcus sp.; strain GC 4546): 4 µg/mL (≈ 2.73 µM)
